# From patent US20250243196A1, “CITRON KINASE INHIBITORS” (The Cleveland Clinic Foundation, priority 2021, published 2025)
# Experiments:
# Assay in all cases: KinaseProfiler panel
# Assay type in all cases: biochemical
# Conditions in all cases: activity remaining
# WNK2(h) = WNK2(h) (Homo sapiens (Human), UniProt Q9Y3S1); parameters: dose or concentration left out as unconfirmed
# BRK(h) = BRK(h) (Homo sapiens (Human), UniProt Q13882); parameters: dose or concentration left out as unconfirmed
# PDHK2(h) = PDHK2(h) (Homo sapiens (Human), UniProt Q15119); parameters: dose or concentration left out as unconfirmed
# FGFR2(h) = FGFR2(h) (Homo sapiens (Human), UniProt P21802); parameters: dose or concentration left out as unconfirmed
# CDK2/cyclinE(h) = CDK2/cyclinE(h) (Homo sapiens (Human), UniProt P24941); parameters: dose or concentration left out as unconfirmed
# PKBα(h) = PKBα(h) (Homo sapiens (Human), UniProt P31749); parameters: dose or concentration left out as unconfirmed
# ChaK1(h) = ChaK1(h) (Homo sapiens (Human), UniProt Q96QT4); parameters: dose or concentration left out as unconfirmed
# Sequence of ChaK1(h) (Q96QT4 whole entry): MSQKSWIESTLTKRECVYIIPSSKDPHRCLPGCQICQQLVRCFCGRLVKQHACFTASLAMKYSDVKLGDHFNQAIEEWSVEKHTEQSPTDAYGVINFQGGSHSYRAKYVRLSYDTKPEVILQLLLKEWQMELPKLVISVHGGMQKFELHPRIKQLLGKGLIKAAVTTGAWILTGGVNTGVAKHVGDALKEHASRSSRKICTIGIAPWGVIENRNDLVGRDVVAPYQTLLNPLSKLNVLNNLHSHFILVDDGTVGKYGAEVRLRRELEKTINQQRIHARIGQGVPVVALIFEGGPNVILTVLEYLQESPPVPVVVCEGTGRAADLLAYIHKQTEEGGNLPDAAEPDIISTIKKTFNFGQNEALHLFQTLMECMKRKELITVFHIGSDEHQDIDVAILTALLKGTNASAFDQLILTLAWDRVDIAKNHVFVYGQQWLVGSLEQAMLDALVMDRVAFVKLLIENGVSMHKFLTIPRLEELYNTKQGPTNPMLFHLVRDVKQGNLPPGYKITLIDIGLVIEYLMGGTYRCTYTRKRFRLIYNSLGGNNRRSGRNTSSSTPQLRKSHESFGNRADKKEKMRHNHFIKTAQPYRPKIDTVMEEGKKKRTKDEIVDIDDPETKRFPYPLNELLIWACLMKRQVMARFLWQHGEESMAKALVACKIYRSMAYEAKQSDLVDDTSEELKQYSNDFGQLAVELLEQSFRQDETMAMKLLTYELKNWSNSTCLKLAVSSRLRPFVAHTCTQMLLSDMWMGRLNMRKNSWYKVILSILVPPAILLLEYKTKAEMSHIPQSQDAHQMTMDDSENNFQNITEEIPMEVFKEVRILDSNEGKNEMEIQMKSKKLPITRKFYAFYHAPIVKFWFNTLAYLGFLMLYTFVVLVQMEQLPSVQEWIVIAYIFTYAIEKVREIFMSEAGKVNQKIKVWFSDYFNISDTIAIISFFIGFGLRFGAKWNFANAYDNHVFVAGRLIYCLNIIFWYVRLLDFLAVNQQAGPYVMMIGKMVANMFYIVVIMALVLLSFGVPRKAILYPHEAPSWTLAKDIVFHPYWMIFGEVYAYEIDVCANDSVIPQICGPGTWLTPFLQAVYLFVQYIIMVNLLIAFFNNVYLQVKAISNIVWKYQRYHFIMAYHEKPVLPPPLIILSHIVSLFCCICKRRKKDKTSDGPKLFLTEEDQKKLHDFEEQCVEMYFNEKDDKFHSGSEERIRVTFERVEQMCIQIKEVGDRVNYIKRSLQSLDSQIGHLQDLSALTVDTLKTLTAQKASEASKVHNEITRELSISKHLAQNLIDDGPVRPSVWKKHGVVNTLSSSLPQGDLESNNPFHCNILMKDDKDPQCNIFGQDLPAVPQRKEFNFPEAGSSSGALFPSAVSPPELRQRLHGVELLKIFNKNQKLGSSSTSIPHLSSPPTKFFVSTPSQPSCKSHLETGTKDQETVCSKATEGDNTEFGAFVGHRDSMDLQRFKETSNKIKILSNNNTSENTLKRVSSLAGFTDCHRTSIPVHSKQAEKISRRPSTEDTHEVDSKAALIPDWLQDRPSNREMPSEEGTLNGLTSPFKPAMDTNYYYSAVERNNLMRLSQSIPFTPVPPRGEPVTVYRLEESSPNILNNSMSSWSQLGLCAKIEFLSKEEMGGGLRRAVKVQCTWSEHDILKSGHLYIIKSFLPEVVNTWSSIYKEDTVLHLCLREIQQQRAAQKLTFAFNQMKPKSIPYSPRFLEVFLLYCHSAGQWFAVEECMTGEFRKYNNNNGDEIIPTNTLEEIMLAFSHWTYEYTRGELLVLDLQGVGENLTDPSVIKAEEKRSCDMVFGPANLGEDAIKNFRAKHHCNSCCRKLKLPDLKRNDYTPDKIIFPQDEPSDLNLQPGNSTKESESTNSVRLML
# Tie2 (h) = Tie2 (h) (Homo sapiens (Human), UniProt Q02763); parameters: dose or concentration left out as unconfirmed
# MST4(h) = MST4(h) (Homo sapiens (Human), UniProt Q9P289); parameters: dose or concentration left out as unconfirmed
# MARK3(h) = MARK3(h) (Homo sapiens (Human), UniProt P27448); parameters: dose or concentration left out as unconfirmed
# FAK(h) = FAK(h) (Homo sapiens (Human), UniProt Q05397); parameters: dose or concentration left out as unconfirmed
# IKKε(h) = IKKε(h) (Homo sapiens (Human), UniProt Q14164); parameters: dose or concentration left out as unconfirmed
# Sequence of IKKε(h) (Q14164 whole entry): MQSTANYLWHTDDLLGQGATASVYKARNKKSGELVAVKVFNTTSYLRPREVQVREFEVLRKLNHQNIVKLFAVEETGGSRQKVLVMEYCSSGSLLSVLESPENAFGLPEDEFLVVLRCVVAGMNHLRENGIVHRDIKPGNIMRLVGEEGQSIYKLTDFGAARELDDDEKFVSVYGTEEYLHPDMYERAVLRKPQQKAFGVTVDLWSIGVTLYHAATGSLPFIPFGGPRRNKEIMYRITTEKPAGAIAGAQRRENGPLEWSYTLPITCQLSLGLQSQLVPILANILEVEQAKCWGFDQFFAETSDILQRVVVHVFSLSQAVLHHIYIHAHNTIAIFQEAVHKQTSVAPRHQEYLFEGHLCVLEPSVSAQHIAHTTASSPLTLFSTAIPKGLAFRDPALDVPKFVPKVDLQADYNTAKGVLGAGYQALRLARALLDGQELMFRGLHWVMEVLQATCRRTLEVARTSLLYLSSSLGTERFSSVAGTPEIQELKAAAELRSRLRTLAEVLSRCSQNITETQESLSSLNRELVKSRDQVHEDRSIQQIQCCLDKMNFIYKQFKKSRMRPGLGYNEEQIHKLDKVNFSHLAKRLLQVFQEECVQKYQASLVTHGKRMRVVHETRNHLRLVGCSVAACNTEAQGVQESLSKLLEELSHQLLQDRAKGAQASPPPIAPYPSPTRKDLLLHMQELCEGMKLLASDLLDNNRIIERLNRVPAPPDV
# ACTR2(h) = ACTR2(h) (Homo sapiens (Human), UniProt P27037); parameters: dose or concentration left out as unconfirmed
# SIK(h) = SIK(h) (Homo sapiens (Human), UniProt P57059); parameters: dose or concentration left out as unconfirmed
# PKG1α(h) = PKG1α(h) (Homo sapiens (Human), UniProt Q13976); parameters: dose or concentration left out as unconfirmed
# NDR1(h) = NDR1(h) (Homo sapiens (Human), UniProt Q15208); parameters: dose or concentration left out as unconfirmed
# IRAK1(h) = IRAK1(h) (Homo sapiens (Human), UniProt P51617); parameters: dose or concentration left out as unconfirmed
# NEK9(h) = NEK9(h) (Homo sapiens (Human), UniProt Q8TD19); parameters: dose or concentration left out as unconfirmed
# Sequence of NEK9(h) (Q8TD19 whole entry): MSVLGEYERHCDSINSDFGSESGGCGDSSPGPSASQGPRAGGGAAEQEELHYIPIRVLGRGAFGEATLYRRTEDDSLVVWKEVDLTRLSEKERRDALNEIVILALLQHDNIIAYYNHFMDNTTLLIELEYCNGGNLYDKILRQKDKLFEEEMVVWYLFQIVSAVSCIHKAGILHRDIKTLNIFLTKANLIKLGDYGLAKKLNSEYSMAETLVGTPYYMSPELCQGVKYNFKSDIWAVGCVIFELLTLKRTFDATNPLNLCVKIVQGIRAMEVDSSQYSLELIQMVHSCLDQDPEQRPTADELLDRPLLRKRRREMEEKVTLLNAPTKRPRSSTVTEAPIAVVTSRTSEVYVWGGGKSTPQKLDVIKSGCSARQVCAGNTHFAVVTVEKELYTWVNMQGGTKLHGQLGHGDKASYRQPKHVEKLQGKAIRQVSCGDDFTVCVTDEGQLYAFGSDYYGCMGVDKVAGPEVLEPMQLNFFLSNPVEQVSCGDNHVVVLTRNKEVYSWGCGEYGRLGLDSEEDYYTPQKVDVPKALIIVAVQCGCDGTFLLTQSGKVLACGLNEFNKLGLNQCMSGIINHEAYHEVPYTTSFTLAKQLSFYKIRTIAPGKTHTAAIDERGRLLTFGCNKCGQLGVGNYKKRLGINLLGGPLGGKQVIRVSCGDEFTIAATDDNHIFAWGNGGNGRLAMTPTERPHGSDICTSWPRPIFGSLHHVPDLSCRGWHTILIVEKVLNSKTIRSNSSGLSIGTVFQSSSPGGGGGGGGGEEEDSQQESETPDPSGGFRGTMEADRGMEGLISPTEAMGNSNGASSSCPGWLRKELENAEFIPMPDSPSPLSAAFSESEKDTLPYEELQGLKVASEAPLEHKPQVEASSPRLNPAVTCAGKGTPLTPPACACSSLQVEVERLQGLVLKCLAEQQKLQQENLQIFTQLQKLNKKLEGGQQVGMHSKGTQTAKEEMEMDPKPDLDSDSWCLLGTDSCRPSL
# NDR2(h) = NDR2(h) (Homo sapiens (Human), UniProt Q9Y2H1); parameters: dose or concentration left out as unconfirmed
# eEF-2K(h) = eEF-2K(h) (Homo sapiens (Human), UniProt O00418); parameters: dose or concentration left out as unconfirmed
# SAPK2a(h) = SAPK2a(h) (Homo sapiens (Human), UniProt Q16539); parameters: dose or concentration left out as unconfirmed
# Tec(h) activated = Tec(h) activated (Homo sapiens (Human), UniProt P42680); parameters: dose or concentration left out as unconfirmed
# Sequence of Tec(h) activated (P42680 whole entry): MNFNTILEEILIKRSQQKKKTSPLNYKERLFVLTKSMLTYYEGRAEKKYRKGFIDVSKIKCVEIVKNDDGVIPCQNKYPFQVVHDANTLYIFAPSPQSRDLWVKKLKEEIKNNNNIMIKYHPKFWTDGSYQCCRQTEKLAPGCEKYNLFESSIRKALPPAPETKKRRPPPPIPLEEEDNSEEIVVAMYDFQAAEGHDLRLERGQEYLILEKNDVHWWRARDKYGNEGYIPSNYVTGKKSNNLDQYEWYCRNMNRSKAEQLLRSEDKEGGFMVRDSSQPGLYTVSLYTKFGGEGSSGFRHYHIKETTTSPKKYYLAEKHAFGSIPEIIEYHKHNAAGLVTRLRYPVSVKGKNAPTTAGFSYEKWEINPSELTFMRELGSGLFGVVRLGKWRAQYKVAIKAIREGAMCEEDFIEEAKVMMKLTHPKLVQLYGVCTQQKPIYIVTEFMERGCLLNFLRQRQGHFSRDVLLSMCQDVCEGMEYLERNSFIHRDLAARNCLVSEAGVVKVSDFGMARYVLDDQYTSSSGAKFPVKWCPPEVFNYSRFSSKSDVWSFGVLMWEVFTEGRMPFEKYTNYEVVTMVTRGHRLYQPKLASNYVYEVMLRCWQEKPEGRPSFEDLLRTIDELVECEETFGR
# CK1δ(h) = CK1δ(h) (Homo sapiens (Human), UniProt P48730); parameters: dose or concentration left out as unconfirmed
# MSK1(h) = MSK1(h) (Homo sapiens (Human), UniProt O75582); parameters: dose or concentration left out as unconfirmed
# GRK2(h) = GRK2(h) (Homo sapiens (Human), UniProt P25098); parameters: dose or concentration left out as unconfirmed
# ASK1(h) = ASK1(h) (Homo sapiens (Human), UniProt Q99683); parameters: dose or concentration left out as unconfirmed
# BTK(h) = BTK(h) (Homo sapiens (Human), UniProt Q06187); parameters: dose or concentration left out as unconfirmed
# PASK(h) = PASK(h) (Homo sapiens (Human), UniProt Q96RG2); parameters: dose or concentration left out as unconfirmed
# Fms(h) = Fms(h) (Homo sapiens (Human), UniProt P07333); parameters: dose or concentration left out as unconfirmed
# LRRK2(h) = LRRK2(h) (Homo sapiens (Human), UniProt Q5S007); parameters: dose or concentration left out as unconfirmed
# CDK2/cyclinA(h) = CDK2/cyclinA(h) (Homo sapiens (Human), UniProt P24941); parameters: dose or concentration left out as unconfirmed
# TLK1(h) = TLK1(h) (Homo sapiens (Human), UniProt Q9UKI8)
# Sequence of TLK1(h) (Q9UKI8 whole entry): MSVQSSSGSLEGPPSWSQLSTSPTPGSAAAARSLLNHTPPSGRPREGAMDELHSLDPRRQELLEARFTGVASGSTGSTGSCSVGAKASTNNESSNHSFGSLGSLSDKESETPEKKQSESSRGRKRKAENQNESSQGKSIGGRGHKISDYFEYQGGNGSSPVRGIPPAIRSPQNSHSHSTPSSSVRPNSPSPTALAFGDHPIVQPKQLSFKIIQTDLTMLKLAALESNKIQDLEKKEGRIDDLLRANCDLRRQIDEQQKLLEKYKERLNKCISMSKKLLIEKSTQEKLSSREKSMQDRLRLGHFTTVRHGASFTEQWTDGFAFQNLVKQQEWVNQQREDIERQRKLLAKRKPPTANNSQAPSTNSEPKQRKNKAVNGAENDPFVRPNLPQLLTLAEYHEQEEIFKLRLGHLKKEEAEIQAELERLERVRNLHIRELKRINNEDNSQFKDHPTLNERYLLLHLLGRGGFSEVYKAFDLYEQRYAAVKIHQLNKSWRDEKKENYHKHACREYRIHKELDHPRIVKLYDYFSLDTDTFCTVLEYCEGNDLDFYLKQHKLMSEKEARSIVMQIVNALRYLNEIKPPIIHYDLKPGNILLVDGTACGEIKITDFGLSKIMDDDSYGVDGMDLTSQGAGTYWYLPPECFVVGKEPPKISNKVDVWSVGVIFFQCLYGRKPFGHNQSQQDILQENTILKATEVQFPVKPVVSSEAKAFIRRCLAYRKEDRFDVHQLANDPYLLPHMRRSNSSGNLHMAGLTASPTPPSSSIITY
# PI3KC2g(h) = PI3KC2g(h) (Homo sapiens (Human), UniProt O75747)
smiles,measurement,setting,value
"Cc1cc2c(-c3ccc(NC(=O)[C@H](N)CC(C)(C)C)cc3C)ccnc2[nH]1 [Compound F-90, (2R)-2-Amino-4,4-dimethyl-N-[3-methyl-4-(2-methyl-1H-pyrrolo[2,3-b]pyridin-4-yl)phenyl]pentanamide]",% Activity,WNK2(h),94%
same,% Activity,BRK(h),83%
same,% Activity,PDHK2(h),87%
same,% Activity,FGFR2(h),89%
same,% Activity,CDK2/cyclinE(h),92%
same,% Activity,PKBα(h),87%
same,% Activity,ChaK1(h),106%
same,% Activity,Tie2 (h),99%
same,% Activity,MST4(h),106%
same,% Activity,MARK3(h),90%
same,% Activity,FAK(h),96%
same,% Activity,IKKε(h),87%
same,% Activity,ACTR2(h),96%
same,% Activity,SIK(h),105%
same,% Activity,PKG1α(h),118%
same,% Activity,NDR1(h),100%
same,% Activity,IRAK1(h),95%
same,% Activity,NEK9(h),79%
same,% Activity,NDR2(h),107%
same,% Activity,eEF-2K(h),92%
same,% Activity,SAPK2a(h),94%
same,% Activity,Tec(h) activated,126%
same,% Activity,CK1δ(h),96%
same,% Activity,MSK1(h),111%
same,% Activity,GRK2(h),95%
same,% Activity,ASK1(h),100%
same,% Activity,BTK(h),122%
same,% Activity,PASK(h),72%
same,% Activity,Fms(h),115%
same,% Activity,LRRK2(h),100%
same,% Activity,CDK2/cyclinA(h),87%
same,% Activity,TLK1(h),82%
same,% Activity,PI3KC2g(h),103%
